This is an account of results in patent publication US10471046B2, “Method for treating, preventing, or reducing the risk of skin infection” (Melinta Subsidiary Corp., priority 2014, dated 2019).

In brackets after ≈: the same amount, converted by molar mass.

The test system of this assay is S. aureus. The assay can be described thus: Minimum inhibitory concentrations (MICs) for S. aureus of exemplary compounds (Table 2). Format: cell-based. The settings on record: Staphylococcus aureus, minimum inhibitory concentrations for S. aureus; read-out: MICs. Summed up: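 MICs (μg/mL) against S. aureus come from microtiter-tray dilution susceptibility testing per NCCLS M7-A5, comparing growth with and without compound.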
As for `CC(=O)NC[C@H]1CN(c2ccc(-c3ccc(CNCC4CCOC4)cc3)c(F)c2)C(=O)O1` (stereo partly drawn) [Compound 4219, N-[3-(2-Fluoro-4′-{[(tetrahydro-furan-3-ylmethyl)-amino]-methyl}-biphenyl-4-yl)-2-oxo-oxazolidin-5-(S)-ylmethyl]-acetamide], the MIC was 8 mg/L (≈ 18.1 µM).

Consider `CC(=O)NC[C@H]1CN(c2ccc(-c3ccc(C(=N)NCc4ccco4)cc3)c(F)c2)C(=O)O1` [Compound 4222, N-{3-[2-Fluoro-4′-(N-furan-2-ylmethyl-carbamimidoyl)-biphenyl-4-yl]-2-oxo-oxazolidin-5-(S)-ylmethyl}-acetamide], for which the MIC is 16 mg/L (≈ 35.5 µM).

In the case of `CC(=O)NC[C@H]1CN(c2ccc(-c3ccc(C(=O)NCCc4cnc[nH]4)nc3)c(F)c2)C(=O)O1` [Compound 4223, 5-{4-[5-(S)-(Acetylamino-methyl)-2-oxo-oxazolidin-3-yl]-2-fluoro-phenyl}-pyridine-2-carboxylic acid [2-(3H-imidazol-4-yl)-ethyl]-amide], the MIC worked out at 2 mg/L (≈ 4.29 µM).

Regarding `CC(=O)NC[C@H]1CN(c2ccc(-c3ccc(C(=O)NCc4ncon4)cc3)c(F)c2)C(=O)O1` [Compound 4224, 4′-[5-(S)-(Acetylamino-methyl)-2-oxo-oxazolidin-3-yl]-2′-fluoro-biphenyl-4-carboxylic acid ([1,2,4]oxadiazol-3-ylmethyl)-amide], the MIC amounted to 0.5 mg/L (≈ 1.1 µM).

As for `CC(=O)NC[C@H]1CN(c2ccc(-c3ccc(C(=O)NCc4ncsn4)cc3)c(F)c2)C(=O)O1` [Compound 4225, 4′-[5-(S)-(Acetylamino-methyl)-2-oxo-oxazolidin-3-yl]-2′-fluoro-biphenyl-4-carboxylic acid ([1,2,4]thiadiazol-3-ylmethyl)-amide], the MIC was determined as 1 mg/L (≈ 2.13 µM).

With `CC(=O)NC[C@H]1CN(c2ccc(-c3ccc(CSCC4CO4)cc3)c(F)c2)C(=O)O1` (stereo partly drawn) [Compound 4226, N-[3-(2-Fluoro-4′-oxiranylmethylsulfanylmethyl-biphenyl-4-yl)-2-oxo-oxazolidin-5-(S)-ylmethyl]-acetamide], the MIC was 1 mg/L (≈ 2.32 µM).

Turning to `CC(=O)NC[C@H]1CN(c2ccc(-c3ccc(CNCCc4c[nH]cn4)cc3)c(F)c2)C(=O)O1` [Compound 4227, N-[3-(2-Fluoro-4′-{[2-(1H-imidazol-4-yl)-ethylamino]-methyl}-biphenyl-4-yl)-2-oxo-oxazolidin-5-(S)-ylmethyl]-acetamide], the MIC worked out at 4 mg/L (≈ 8.86 µM).

For `CC(=O)NC[C@H]1CN(c2ccc(-c3ccc(CNCCC4C=Nc5ccc(C)cc54)cc3)c(F)c2)C(=O)O1` (stereo partly drawn) [Compound 4228, N-[3-(2-Fluoro-4′-{[2-(5-methyl-3H-indol-3-yl)-ethylamino]-methyl}-biphenyl-4-yl)-2-oxo-oxazolidin-5-(S)-ylmethyl]-acetamide], the MIC stood at 2 mg/L (≈ 3.89 µM).

As for `CC(=O)NC[C@H]1CN(c2ccc(-c3ccc(CNCc4cc(C)on4)cc3)c(F)c2)C(=O)O1` [Compound 4229, N-[3-(2-Fluoro-4′-{[(5-methyl-isoxazol-3-ylmethyl)-amino]-methyl}-biphenyl-4-yl)-2-oxo-oxazolidin-5-(S)-ylmethyl]-acetamide], the MIC is 0.25 mg/L (≈ 0.553 µM).

Turning to `O=C1O[C@@H](Cn2cncn2)CN1c1ccc(-c2ccc(CNCc3ccncc3)cc2)c(F)c1` [Compound 4230, 3-(2-Fluoro-4′-{[(pyridin-4-ylmethyl)-amino]-methyl}-biphenyl-4-yl)-5-(R)-[1,2,4]triazol-1-ylmethyl-oxazolidin-2-one], the MIC turned out to be 32 mg/L (≈ 69.8 µM).

Regarding `Cn1nnnc1SC[C@H]1CN(c2ccc(-c3ccc(CNCc4ccncc4)cc3)c(F)c2)C(=O)O1` [Compound 4231, 3-(2-Fluoro-4′-{[(pyridin-4-ylmethyl)-amino]-methyl}-biphenyl-4-yl)-5-(R)-(1-methyl-1H-tetrazol-5-ylsulfanylmethyl)-oxazolidin-2-one], the MIC is 32 mg/L (≈ 63.3 µM).

On to `CC(=O)NC[C@H]1CN(c2ccc(-c3ccc(CNCc4ncon4)cc3)c(F)c2)C(=O)O1` [Compound 4233, N-[3-(2-Fluoro-4′-{[([1,2,4]oxadiazol-3-ylmethyl)-amino]-methyl}-biphenyl-4-yl)-2-oxo-oxazolidin-5-(S)-ylmethyl]-acetamide], for which the MIC is 0.5 mg/L (≈ 1.14 µM).

For `CC(=O)NC[C@H]1CN(c2ccc(-c3ccc(CNCc4cocn4)cc3)c(F)c2)C(=O)O1` [Compound 4234, N-[3-(2-Fluoro-4′-{[(oxazol-4-ylmethyl)-amino]-methyl}-biphenyl-4-yl)-2-oxo-oxazolidin-5-(S)-ylmethyl]-acetamide], the MIC amounted to 2 mg/L (≈ 4.56 µM).

For `CC(=O)NC[C@H]1CN(c2ccc(-c3ccc(CNCc4cocn4)nc3)c(F)c2)C(=O)O1` [Compound 4235, N-{3-[3-Fluoro-4-(6-{[(oxazol-4-ylmethyl)-amino]-methyl}-pyridin-3-yl)-phenyl]-2-oxo-oxazolidin-5-(S)-ylmethyl}-acetamide], the MIC is 2 mg/L (≈ 4.55 µM).

With `CC(=O)NC[C@H]1CN(c2ccc(-c3ccc(CNNC(=O)c4ccncc4)cc3)c(F)c2)C(=O)O1` [Compound 4236, N-(3-{2-Fluoro-4′-[N′-(pyridine-4-carbonyl)-hydrazinomethyl]-biphenyl-4-yl}-2-oxo-oxazolidin-5-(S)-ylmethyl)-acetamide], the MIC turned out to be 0.25 mg/L (≈ 0.524 µM).

For `CC(=O)NC[C@H]1CN(c2ccc(-c3ccc(CNNC(=O)c4cccnc4)cc3)c(F)c2)C(=O)O1` [Compound 4237, N-(3-{2-Fluoro-4′-[N′-(pyridine-3-carbonyl)-hydrazinomethyl]-biphenyl-4-yl}-2-oxo-oxazolidin-5-(S)-ylmethyl)-acetamide], the MIC is 0.25 mg/L (≈ 0.524 µM).

`CC(=O)NC[C@H]1CN(c2ccc(-c3ccc(CNC(=O)Cn4ccnn4)cc3)c(F)c2)C(=O)O1` [Compound 4239, N-{4′-[5-(S)-(Acetylamino-methyl)-2-oxo-oxazolidin-3-yl]-2′-fluoro-biphenyl-4-ylmethyl}-2-[1,2,3]triazol-1-yl-acetamide]: the MIC came out at 2 mg/L (≈ 4.29 µM).

On to `CC(=O)NC[C@H]1CN(c2ccc(-c3ccc(CNC(=O)Cn4cc(CO)nn4)cc3)c(F)c2)C(=O)O1` [Compound 4240, N-{4′-[5-(S)-(Acetylamino-methyl)-2-oxo-oxazolidin-3-yl]-2′-fluoro-biphenyl-4-ylmethyl}-2-(4-hydroxymethyl-[1,2,3]triazol-1-yl)-acetamide], for which the MIC was 16 mg/L (≈ 32.2 µM).

`CCC(O)Cc1cn(CC(=O)NCc2ccc(-c3ccc(N4C[C@H](CNC(C)=O)OC4=O)cc3F)cc2)nn1` (stereo partly drawn) [Compound 4241, N-{4′-[5-(S)-(Acetylamino-methyl)-2-oxo-oxazolidin-3-yl]-2′-fluoro-biphenyl-4-ylmethyl}-2-[4-(2-hydroxy-butyl)-[1,2,3]triazol-1-yl]-acetamide]: the MIC is 4 mg/L (≈ 7.43 µM).

`CC(=O)NC[C@H]1CN(c2ccc(-c3ccc(CNC(=O)c4csc(C)n4)cc3)c(F)c2)C(=O)O1` [Compound 4242, 2-Methyl-thiazole-4-carboxylic acid {4′-[5-(S)-(acetylamino-methyl)-2-oxo-oxazolidin-3-yl]-2′-fluoro-biphenyl-4-ylmethyl}-amide]: the MIC was 2 mg/L (≈ 4.14 µM).

In the case of `CC(=O)NC[C@H]1CN(c2ccc(-c3ccc(CNCc4cc[n+]([O-])cc4)cc3)c(F)c2)C(=O)O1` [Compound 4245, N-[3-(2-Fluoro-4′-{[(1-oxy-pyridin-4-ylmethyl)-amino]-methyl}-biphenyl-4-yl)-2-oxo-oxazolidin-5-(S)-ylmethyl]-acetamide], the MIC was found to be 2 mg/L (≈ 4.31 µM).

In the case of `CC(=O)NC[C@H]1CN(c2ccc(-c3ccc([C@H](O)CNCc4ccccc4)cc3)c(F)c2)C(=O)O1` [Compound 4246, N-{3-[4′-(2-Benzylamino-1-(S)-hydroxy-ethyl)-2-fluoro-biphenyl-4-yl]-2-oxo-oxazolidin-5-(S)-ylmethyl}-acetamide], the MIC is 4 mg/L (≈ 8.38 µM).

Take `CC(=O)NC[C@H]1CN(c2ccc(-c3ccc([C@H](O)CN(CCCF)Cc4ccccc4)cc3)c(F)c2)C(=O)O1` [Compound 4247, N-[3-(4′-{2-[Benzyl-(3-fluoro-propyl)-amino]-1-(S)-hydroxy-ethyl}-2-fluoro-biphenyl-4-yl)-2-oxo-oxazolidin-5-(S)-ylmethyl]-acetamide]: the MIC was 8 mg/L (≈ 14.9 µM).

Take `CSCCN(Cc1ccccc1)C[C@@H](O)c1ccc(-c2ccc(N3C[C@H](CNC(C)=O)OC3=O)cc2F)cc1` [Compound 4248, N-[3-(4′-{2-[Benzyl-(2-methylsulfanyl-ethyl)-amino]-1-(S)-hydroxy-ethyl}-2-fluoro-biphenyl-4-yl)-2-oxo-oxazolidin-5-(S)-ylmethyl]-acetamide]: the MIC came out at 4 mg/L (≈ 7.25 µM).

With `CC(=O)NC[C@H]1CN(c2ccc(-c3ccc([C@H](O)CN(CCC(F)(F)Cl)Cc4ccccc4)cc3)c(F)c2)C(=O)O1` [Compound 4249, N-[3-(4′-{2-[Benzyl-(3-chloro-3,3-difluoro-propyl)-amino]-1-(S)-hydroxy-ethyl}-2-fluoro-biphenyl-4-yl)-2-oxo-oxazolidin-5-(S)-ylmethyl]-acetamide], the MIC stood at 8 mg/L (≈ 13.6 µM).

Regarding `CC(=O)NC[C@H]1CN(c2ccc(-c3ccc([C@H](O)CN(Cc4ccccc4)C(C)=O)cc3)c(F)c2)C(=O)O1` [Compound 4250, N-(2-{4′-[5-(S)-(Acetylamino-methyl)-2-oxo-oxazolidin-3-yl]-2′-fluoro-biphenyl-4-yl}-2-(S)-hydroxy-ethyl)-N-benzyl-acetamide], the MIC turned out to be 2 mg/L (≈ 3.85 µM).

Turning to `CC(=O)NC[C@H]1CN(c2ccc(-c3ccc([C@H](O)CN(C)Cc4ccccc4)cc3)c(F)c2)C(=O)O1` [Compound 4251, N-(3-{4′-[2-(Benzyl-methyl-amino)-1-(S)-hydroxy-ethyl]-2-fluoro-biphenyl-4-yl}-2-oxo-oxazolidin-5-(S)-ylmethyl)-acetamide], the MIC amounted to 2 mg/L (≈ 4.07 µM).

As for `CC(=O)NC[C@H]1CN(c2ccc(-c3ccc(CNCc4cnoc4)nc3)c(F)c2)C(=O)O1` [Compound 4252, N-{3-[3-Fluoro-4-(6-{[(isoxazol-4-ylmethyl)-amino]-methyl}-pyridin-3-yl)-phenyl]-2-oxo-oxazolidin-5-(S)-ylmethyl}-acetamide], the MIC was determined as 2 mg/L (≈ 4.55 µM).

As to `CC(=O)NC[C@H]1CN(c2ccc(-c3ccc(CNCc4cc(Br)no4)cc3)c(F)c2)C(=O)O1` [Compound 4253, N-[3-(4′-{[(3-Bromo-isoxazol-5-ylmethyl)-amino]-methyl}-2-fluoro-biphenyl-4-yl)-2-oxo-oxazolidin-5-(S)-ylmethyl]-acetamide], the MIC came to 0.5 mg/L (≈ 0.966 µM).
